Laboratory results reported in patent US6413948B1, “Pharmaceutical compositions and methods of effecting a neuronal activity in an animal using naaladase inhibitors” (Guilford Pharmaceuticals Inc., priority 1996, dated 2002).

Tests used:
[1] = system: rats which had sustained dynorphin-induced spinal cord injury; test: In vivo assay on dynorphin-induced spinal cord injury; parameters: species or system Sprague-Dawley rats
Procedure: Dynorphin-induced spinal cord injury was performed according to Long et al., JPET, Vol. 269, No. 1, pp. 358-366 (1993). In brief, spinal subarachnoid injections were delivered using 30-gauge needles inserted between the L4-L5 vertebrae of male Sprague-Dawley rats (300-350 g). The rats were anesthetized with halothane and dorsal midline incisions were made immediately rostral to the pelvic girdle. By using the vertebral processes as guides, the needle was advanced to pass into the subarachnoid space surrounding the cauda equina. Correct needle pement was verified by CSF from the needle after its insertion. […] After injections, the incisions were treated with the topical antibacterial furazolidone and closed with wound clips. […]
Neurological function was evaluated using a 5-point ordinal scale, with scores being assigned as follows: 4=normal motor function; 3=mild paraparesis, with the ability to support weight and walk with impairment; 2=paraparesis, with the ability to make walking movements without fully supporting weight; 1=severe paraparesis, in which rats could make limited hind limb movement, but not walking movement; and 0=flaccid paralysis, with complete absence of any hind limb movement. […]
Differences in the neurological scores among treatment groups were determined by means of the Mann-Whitney U test or the Kruskal-Wallis test.

cortical cell cultures = test: In vitro assay of NAALADase inhibitors on toxicity of NAAG; format: cell-based, rats; settings: inhibitor 1 μM
Procedure: Dissociated cortical cell cultures are prepared using the papain-dissociation method of Heuttner and Baughman (1986) as modified by Murphy and Baraban (1990). See TABLE VII for the Dissociated Culture Protocol as used herein. Fetuses of embryonic day 17 are removed from timed pregnancy rats (Harlan Sprague Dawley). The cortex is rapidly dissected out in Dulbecco's phosphate-buffered saline, stripped of meninges, and incubated in a papain solution for 15 minutes at 37° C. The tissue is then mechanically triturated and pelleted at 500 g (1000-2000 rpm on swinging bucket Beckman). The pellet is resuspended in a DNAase solution, triturated with a 10 ml pipette ×15-20, layered over a “10×10” solution containing albumin and trypsin inhibitor (see TABLE VII for an example of a “10×10” solution), repelleted, and resuspended in a plating medium containing 10% fetal bovine serum (HyClone A-1111-L), 5% heat-inactivated Equine serum (HyClone A-3311-L), and […] modified Earle's basal medium (MEM) (Gibco 51200-020) with high glucose (4.5 g/L), and 1 g/L NaHCO3. Each 24-well plate is pretreated with poly-D-lysine (0.5 ml/well of 10 μg/ml) for 1 h and rinsed with water before plating. Cultures are plated at 2.5×10^6 cells/ml with each well of a 24 well plate receiving 500 μl/well. Alternatively, 35 mm dishes can be plated at 2 ml/dish, 6 well plates at 2 ml/well, or 12 well plates at 1 ml/well. After plating, 50% of the medium is changed every 3-4 days with growth serum containing 5% heat-inactivated Equine serum (HyClone A3111-L), 95% modified Earle's basal medium (MEM)(Gibco 51200-020), and 1% L-Glutamine (Gibco 25030-081). Experiments are performed after 21 days in cultures. Cultures are maintained in a 5% CO2 atmosphere at 37° C. These methodologies are described in further detail below in the TABLE VII.
At the end of exposure, the cells are washed once with HEPES buffered saline solution and then replaced with serum free modified Earle's basal medium. The cultures are then returned to the CO2 incubator for 24 hour recovery.
Release of the cytosolic enzyme lactate dehydrogenase (LDH), a standard measure of cell lysis, is used to quantify injury (Koh and Choi, 1987). LDH-activity measurements are normalized to control for variability between culture preparations (Koh and Choi, 1987). […] This control measurement is subtracted from each experimental point. […] Only main effects of NAALADase inhibitors are considered; interactions between dose and condition are not examined statistically.

mice = test: In vivo toxicity of NAALADase inhibitors in mice
Source text: The mice were subsequently observed two times per day for 5 consecutive days.

[2] = system: mouse sciatic nerve following cryolesion; test: In vivo assay on myelin formation following sciatic nerve cryolesion; parameters: species or system mice; settings: silicone implants, approximately 2.5 μg/day, 15 days after surgery
Procedure: Cryolesion of the mouse sciatic nerve was performed according to Koenig et al., Science, Vol. 268, pp. 1500-1503 (June 1995). In brief, each mouse was anesthetized and its sciatic nerve was exposed in the upper thigh and cryolesioned using a copper cryode (diameter=0.5 mm) that was dipped in liquid nitrogen and repeatedly applied to the upper part of the nerve. The extent of the lesion was approximately 1 mm.
Fifteen days after surgery, the mice were sacrificed and their sciatic nerve segments were collected and processed for light microscopy and TEM analysis. Randomly chosen fields 2-3 mm distal to the lesion were qualitatively analyzed by light microscopy using 1-micrometer-thick toluidine blue stained cross sections and photographic images were captured.

`O=C(O)CCC(CP(=O)(O)O)C(=O)O` (stereo not shown) [2-(phosphonomethyl)pentanedioic acid] was tested, and the “motor scores (in words)” value ([1]; co-administered with dynorphin A, 24-hour post-injection, vs vehicle, p<0.05) was “significant improvement in motor scores”, the rats ambulatory ([1]; co-treated with dynorphin A, 24 hours post-injection, 15 rats) was 73% and the “% Toxicity” value (cortical cell cultures; NAAG 3 μM) was −4.71 (n = 1) %. The “% Toxicity” value (cortical cell cultures; NAAG 10 μM) was −3.08 ± 0.81 (n = 3) %, the “% Toxicity” value (cortical cell cultures; NAAG 30 μM) was −4.81 ± 1.13 (n = 3) % and the “% Toxicity” value (cortical cell cultures; NAAG 100 μM) was −2.87 ± 0.78 (n = 3) %. For the same compound, the “% Toxicity” value (cortical cell cultures; NAAG 300 μM) was −2.09 ± 0.48 (n = 3) %, the “% Toxicity” value (cortical cell cultures; NAAG 1 mM) was 0.26 ± 1.11 (n = 3) % and the “% Toxicity” value (cortical cell cultures; NAAG 3 mM) was 16.83 ± 8.76 (n = 3) %. For the same compound, the “toxicity to mice (in words)” value (mice; 1 to 500 mg/kg, observed 5 days) was “non-toxic to mice”, the “Survival Rate After 5 days (%)” value (mice; dose 1 mg/kg) was 100% and the “Survival Rate After 5 days (%)” value (mice; dose 5 mg/kg) was 100%. The “Survival Rate After 5 days (%)” value (mice; dose 10 mg/kg) was 100%, the “Survival Rate After 5 days (%)” value (mice; dose 30 mg/kg) was 100% and the “Survival Rate After 5 days (%)” value (mice; dose 100 mg/kg) was 100%. For the same compound, the “Survival Rate After 5 days (%)” value (mice; dose 300 mg/kg) was 100%, the “Survival Rate After 5 days (%)” value (mice; dose 500 mg/kg) was 66.7% and the “# of myelinated lamellae (ave. + SEM)” value [2] was 16.53 ± 0.65. The “% increase of myelinated lamellae over vehicle” value [2] was 20%.
